Experiment [1] relates to T47D cells. Description: Cell viability, T47D cells with doxycycline-inducible PSMD2 shRNA (KD) vs control. Format: cell-based, human. The following applies: doxycycline-regulated PSMD2 shRNA.
The subject of a further experiment is cancer cell lines (GDSC). Description: Genomics of Drug Sensitivity in Cancer (GDSC) data analysis, IC50 of bortezomib and MG132 vs 19S expression / sigma score. Format: cell-based, human. The following applies: GDSC database.
In another experiment the test system is Saccharomyces cerevisiae. Description: Yeast MG132 sensitivity assay, proteasome subunit DAmP strains. The class given is cell-based. The following applies: five of twelve strains, 50 μM. The procedure: FIG. 7: Reducing the levels of 19S subunits is an evolutionarily conserved mechanism to acquire resistance to proteasome inhibition.
As the 19S regulatory complex components are essential for viability in yeast, we utilized a library of hypomorphic (DAmP) alleles for essential yeast genes. In this library, the expression of individual mRNA. species is reduced from two to ten-fold by replacing the mRNA's 3′ untranslated region (Breslow et al., 2008).
Yeast cells were grown over night in media containing L-proline as nitrogen source instead of ammonium sulfate. The overnight cultures were diluted into OD 0.1 and were grown in the L-proline culture with 0.003% SDS with or without 50 μM MG-132. OD was measured over the period of 48 hours.

Another experiment concerns cancer cells. Description: Cell viability, elesclomol and elesclomol analogs (cell titer-glo). The following applies: substitution of oxygen for sulfur group(s). Format: cell-based. From the text:
In addition to the intrinsic sensitivity of certain cancer cells to elesclomol, as our drug screen indicated, the sensitivity of cancer cells to elesclomol can be further enhanced by forcing them into a Hi-OXPHOS state.
We examined several elesclomol analogs (FIG. 57B) to determine the structural features that are important for mediating its cytotoxicity. […] Substitution of oxygen for even one of the sulfur groups (compound-5) reduced the activity of elesclomol by 300 fold. The loss of activity was even more pronounced (>>300 fold) when both sulfurs were substituted (compound-6) (FIGS. 51C-51D, FIG. 57C). Various other modifications to the elesclomol scaffold were tolerated, as long as the core sulfur geometry remained intact.
(§1) Cell viability—where indicated relative cell number following different drug treatment was conducted by plating cells at 1000 cells/well in 384 well plates. Indicated concentrations of compounds were added 24 hour after plating at least in triplicate for each condition. Viability was measured 72 hours after drug addition using cell titer-glo (Promega) according to manufactures protocol. […]
Background: Cellular ATP, detected with luciferase, serves as a proxy for viable cell number.

The subject of experiment [2] is T47D cells. Description: The glucose/galactose drug screen. The class given is cell-based, human. The conditions noted are these: 10 mM Glucose or Galactose, Selleck anti cancer and natural product libraries.
In the next experiment the test system is MCF7 and HEK293 cells. Description: Cell viability with glucose or galactose as the carbon source. Format: cell-based, human. The conditions noted are these: 10 mM glucose or 10 mM galactose. Here is the method: Cells were treated with increasing concentrations of elesclomol in the presence of either Glucose or Galactose as the carbon source (FIG. 40A). The presence of Galactose will induce a mitochondrial dependent metabolism (FIGS. 40B-40C, Gohil et al., Nature Biotechnology 28, 249-255 (2010)).
The sensitivity of cells to different chemical isoforms of elesclomol was also assessed. […] Removing even one substantially impairs the ability of the molecule to induce toxicity (FIG. 41B).
Cell culture methods—147D, Lo19S T47D, K562 and 293T-HS cells were cultured in RPMI-1640 medium supplemented with 10% fetal bovine serum; HEK293, HEK293T and MCF-7 cells were cultured in Dulbecco's modified Eagle's medium supplemented with 10% fetal bovine serum. For the glucose, galactose experiments media lacking glucose was supplemented with dialyzed serum and either 10 mM Glucose or 10 mM galactose.
as §1

Residues, ends and D or L forms follow the SMILES beside them. *: point of attachment. Cbz = O=C(OCc1ccccc1)*

Excerpt for cancer cell lines (GDSC): In some aspects, whether a cancer cell is considered resistant or sensitive to a particular agent may be determined by comparing the IC50 of the agent for the cancer cell with the IC50 of the agent as measured for each cell line in a panel of diverse cancer cell lines. Cancer cells for which the agent has an IC50 in the 10th percentile of IC50 values determined for the agent on a diverse panel of cancer cell lines may be considered sensitive, while cancer cells for which the agent has an IC50 in the 90th percentile of IC50 values determined for the agent on a diverse panel of cancer cell lines may be considered resistant to the agent.
We asked if this might correlate with changes in 19S subunit expression. We analyzed the Genomics of Drug Sensitivity in Cancer (GDSC) database, a public resource of transcriptional data and drug responsiveness collected from a spectrum of human cancer cell lines with diverse tissue origins and diverse oncogenic lesions (Garnett et al., 2012). […]
Further details of methods used in GDSC dataset analysis: Gene expression and drug sensitivity data was downloaded from the World Wide Web at subdomain cancerrxgene.org. […] For each proteasomal subunit gene, a-score was calculated for each cell line. […] P-values were calculated by t-test, comparing the logEC50s between the 3 sigma and not 3 sigma.

`CC(C)C[C@@H](C=O)NC(=O)[C@H](CC(C)C)NC(=O)[C@H](CC(C)C)NC(=O)OCc1ccccc1` [MG132, N-(benzyloxycathonyl)leucinylieucinylieucinal] (Cbz-Leu-Leu-Leu-aldehyde): in the experiment with T47D cells [1], the “resistance after transient reduction of PSMD2” value was “significantly increased resistance”. The “average IC50 value in 3-Sigma cell lines vs all other lines” value in the experiment on cancer cell lines (GDSC) was “considerably higher”. The “resistance of 19S DAmP yeast strains to proteasome inhibition” value in the experiment on Saccharomyces cerevisiae was “significantly increased resistance”.
Consider `CN(NC(=O)CC(=O)NN(C)C(=S)c1ccccc1)C(=O)c1ccccc1` [compound-5], for which the “reduction of activity relative to elesclomol” value in the experiment with cancer cells is recorded as 300 fold.
In the case of antimycin A, in the experiment on T47D cells [2], the “relative viability change of cells grown in glucose versus galactose” value is given as “increased sensitivity”. In addition, the “sensitivity of cells in galactose (mitochondrial metabolism, Hi-OXPHOS) versus glucose (glycolytic)” value with MCF7 and HEK293 cells is given as “This phenomenon is observed”.

Source of the values: patent publication US20180353445A1, “METHODS AND COMPOSITIONS RELATING TO PROTEASOME INHIBITOR RESISTANCE” (Whitehead Institute for Biomedical Research, priority 2017, published 2018).
